For data set [1], the system named is MV4-11. Description: cells. The conditions noted are these: Homo sapiens, MV4-11, 72 h.
Description: Antiproliferative activity against human MV4-11 cells incubated for 72 hrs by MTT assay
The subject of data set [2] is HL-60. Description: Antiproliferative activity against human HL-60 cells incubated for 72 hrs by MTT assay. Format: functional, cell-based. The settings on record: HL-60, 72 h. Background: Tetrazolium dyes change colour on reduction, which living cells bring about.
The target in data set [3] is T1, Menin (Homo sapiens, UniProt O00255).
T1 sequence (O00255 whole entry): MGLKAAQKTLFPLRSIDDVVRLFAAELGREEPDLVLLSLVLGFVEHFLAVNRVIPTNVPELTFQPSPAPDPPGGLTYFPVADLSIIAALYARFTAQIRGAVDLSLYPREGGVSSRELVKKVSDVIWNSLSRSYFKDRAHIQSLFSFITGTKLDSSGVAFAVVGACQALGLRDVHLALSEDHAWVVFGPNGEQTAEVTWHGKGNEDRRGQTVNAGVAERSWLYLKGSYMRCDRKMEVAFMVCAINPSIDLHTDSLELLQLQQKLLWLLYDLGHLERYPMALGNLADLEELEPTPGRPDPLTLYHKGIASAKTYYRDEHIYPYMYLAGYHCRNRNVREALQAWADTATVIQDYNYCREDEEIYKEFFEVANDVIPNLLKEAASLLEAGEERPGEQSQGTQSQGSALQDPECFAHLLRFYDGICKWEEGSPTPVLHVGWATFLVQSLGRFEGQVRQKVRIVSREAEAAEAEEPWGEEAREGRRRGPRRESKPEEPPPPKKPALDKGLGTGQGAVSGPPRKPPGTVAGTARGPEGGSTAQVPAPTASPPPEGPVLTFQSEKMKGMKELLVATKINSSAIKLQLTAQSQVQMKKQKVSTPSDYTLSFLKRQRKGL
In words: Binding affinity to menin (unknown origin) incubated for 1 hr by fluorescence polarization assay. For orientation: Polarisation of emitted light reports the rotation of a fluorescent probe.

In data set [4] the test system is MV4-11. In words: Induction of apoptosis in human MV4-11 cells assessed as early apoptotic cells at 10 uM incubated for 24 hrs by FITC Annexin-V/PI staining based flow cytometry analysis (reference value: 2.68%). The data set is classed as functional. A general note: In flow cytometry, cells or beads pass a laser one at a time.
For data set [5], the system named is MV4-11. In words: Induction of apoptosis in human MV4-11 cells assessed as late apoptotic cells at 10 uM incubated for 24 hrs by FITC Annexin-V/PI staining based flow cytometry analysis (reference value: 3%). Format: functional.
Data set [6] concerns MV4-11. Description: Effect on cell differentiation in human MV4-11 cells assessed as decrease in HOXA9 expression level incubated for 48 hrs by qPCR analysis. The data set is classed as functional, cell-based.
For data set [7], the system named is MV4-11. Description: Effect on cell differentiation in human MV4-11 cells assessed as assessed as increase in CD11b protein expression at M2-2 at 1 uM incubated for 7 days by flow cytometry analysis (reference value: 13.86%). The data set is classed as functional. The settings on record: time 7 day.
Data set [8] deals with MV4-11. Description: Induction of apoptosis in human MV4-11 cells assessed as late apoptotic cells at 1 uM incubated for 24 hrs by FITC Annexin-V/PI staining based flow cytometry analysis (reference value: 3%). The data set is classed as functional.
The test system of data set [9] is MV4-11. In words: Induction of apoptosis in human MV4-11 cells assessed as necrotic cells at 10 uM incubated for 24 hrs by FITC Annexin-V/PI staining based flow cytometry analysis (reference value: 0.04%). Format: functional.
The subject of data set [10] is MV4-11. Description: Induction of apoptosis in human MV4-11 cells assessed as viable cells at 10 uM incubated for 24 hrs by FITC Annexin-V/PI staining based flow cytometry analysis (reference value: 94.27%). Format: functional. The conditions noted are these: read-out: Activity.
Data set [11] has as its system MV4-11. In words: Effect on cell differentiation in human MV4-11 cells assessed as decrease in MEIS1 expression level at 5 uM by qPCR analysis. The data set is classed as functional, cell-based. The settings on record: time 24-48 hrs, TDE = time-dependent effect.
For data set [12], the system named is MV4-11. Description: Induction of apoptosis in human MV4-11 cells assessed as early apoptotic cells at 1 uM incubated for 24 hrs by FITC Annexin-V/PI staining based flow cytometry analysis (reference value: 2.68%). The data set is classed as functional.
The test system of data set [13] is MV4-11. Description: Induction of apoptosis in human MV4-11 cells assessed as viable cells at 1 uM incubated for 24 hrs by FITC Annexin-V/PI staining based flow cytometry analysis (reference value: 94.27%). The data set is classed as functional. The settings on record: read-out: Activity.
Data set [14] concerns MV4-11. Description: Effect on cell differentiation in human MV4-11 cells assessed as assessed as increase in CD11b protein expression at M2-1 at 10 uM incubated for 7 days by flow cytometry analysis (reference value: 86.12%). The data set is classed as functional. The settings on record: time 7 day.
Data set [15] concerns MV4-11. Description: Induction of cell cycle arrest in human MV4-11 cells assessed as accumulation of cells at G0/G1 phase at 10 uM incubated for 24 hrs by PI/RNase staining based flow cytometry analysis. Format: functional.
For data set [16], the system named is MV4-11. In words: Effect on cell differentiation in human MV4-11 cells assessed as assessed as increase in CD11b protein expression at M2-1 at 1 uM incubated for 7 days by flow cytometry analysis (reference value: 86.12%). Format: functional. The conditions noted are these: time 7 day.
The subject of data set [17] is MV4-11. Description: Effect on cell differentiation in human MV4-11 cells assessed as decrease in HOXA9 expression level at 5 uM by qPCR analysis. Format: functional, cell-based. The settings on record: time 24-48 hrs, TDE = time-dependent effect.
The subject of data set [18] is MV4-11. In words: Induction of apoptosis in human MV4-11 cells assessed as necrotic cells at 1 uM incubated for 24 hrs by FITC Annexin-V/PI staining based flow cytometry analysis (reference value: 0.04%). The data set is classed as functional.
Data set [19] relates to MV4-11. Description: Effect on cell differentiation in human MV4-11 cells assessed as assessed as increase in CD11b protein expression at M2-2 at 10 uM incubated for 7 days by flow cytometry analysis (reference value: 13.86%). The data set is classed as functional. The conditions noted are these: time 7 day.
The subject of data set [20] is MV4-11. In words: Effect on cell differentiation in human MV4-11 cells assessed as decrease in MEIS1 expression level incubated for 48 hrs by qPCR analysis. Format: functional, cell-based.
Data set [21] relates to MCF7. In words: Antiproliferative activity against human MCF7 cells incubated for 72 hrs by MTT assay. Format: functional, cell-based. The settings on record: MCF7, 72 h.
Data set [22] concerns Pfeiffer. Description: Antiproliferative activity against human Pfeiffer cells incubated for 72 hrs by MTT assay. The data set is classed as functional, cell-based.
The test system of data set [23] is HCT-116. Description: Antiproliferative activity against human HCT-116 cells incubated for 72 hrs by MTT assay. Format: functional, cell-based. The settings on record: HCT-116, 72 h.
Data set [24] is described as follows: Antiproliferative activity against human NCM460 cells incubated for 72 hrs by MTT assay. Format: toxicity, cell-based.
Data set [25] relates to Raji. Description: Antiproliferative activity against human Raji cells incubated for 72 hrs by MTT assay. The data set is classed as functional, cell-based.
In data set [26] the test system is Ramos. In words: Antiproliferative activity against human Ramos cells incubated for 72 hrs by MTT assay. Format: functional, cell-based.
For data set [27], the system named is SU-DHL-6. Description: Antiproliferative activity against human SU-DHL-6 cells incubated for 72 hrs by MTT assay. The data set is classed as functional, cell-based. The settings on record: SU-DHL-6, 72 h.

Active and inactive are the calls of the source. No cut-off for these calls is given here.

In the case of `CCS(=O)(=O)c1ccc(N2CC(CN3CCC(n4cc(-c5ccc(F)cc5)c5c(N)ncnc54)CC3)C2)cc1`, the values for the concentration for half-maximal inhibition (IC50) in data set [1], in data set [2] and in data set [3] were 1290 nM, above 10 µM and 450 nM, respectively.
Regarding `Nc1ncnc2c1c(-c1ccc(F)cc1)cn2C1CCN(CC2CN(c3ccc(S(=O)(=O)C4CCCC4)cc3)C2)CC1`, the IC50 is 1940 nM in data set [1], above 10 µM in data set [2] and 1040 nM in [3].
The matching figures for `N#Cc1ccc(N2CC(CN3CCC(n4ccc5cncnc54)CC3)C2)cc1`: above 10000 nM, above 10 µM and above 10000 nM.
For the compound `N#Cc1ccc(N2CC(CN3CCC(n4ccc5c(Cl)ncnc54)CC3)C2)cc1`, the IC50 is 6540 nM in data set [1], above 10 µM in data set [2] and above 10000 nM in [3].
With `CCCc1cc2c(N3CCN(C4=NCC(C)(C)S4)CC3)ncnc2s1`, the Activity in [4] is 13.22%; in data set [5], 18.52%; in data set [6], “Dose-Dependent Effect”; in data set [7], 21%; in data set [8], 3.02%; in [9] it was 0.19%. Further, the Activity entry in data set [11] was “Tde”; in [12], 3.12%; in data set [14], 47.84%; in data set [16], 79%; in [17] it was “Tde”; in [18], 0.09%. In addition, the Activity in data set [19] is 52.13%; in data set [20], “Dose-Dependent Effect”. Also, the IC50 in data set [2] was above 10 µM. For the same compound, the viability at 10 µM in [10] came out at 68%. In data set [13], the viability at 1 µM amounted to 93.8%. Moreover, the result in data set [15] was Active.
With `Nc1ncnc2c1c(-c1ccc(F)cc1)cn2C1CCN(CC2CN(c3ccc(S(=O)(=O)C4CC4)cc3)C2)CC1`, the IC50 in data set [1] is 1260 nM; in data set [2], 7.5 µM; in [3] it was 470 nM.
In the case of `Nc1ncnc2c1c(-c1ccc(F)cc1)cn2C1CCN(CC2CN(c3ccc(S(=O)(=O)C4CCCCC4)cc3)C2)CC1`, the IC50 in [1] was 2000 nM; in data set [2], above 10 µM; in data set [3], 250 nM.
`Nc1ncnc2c1c(-c1ccc(F)cc1)cn2C1CCN(CC2CN(c3ccc(S(=O)(=O)C4CCC4)cc3)C2)CC1`: the figures for the IC50 in data set [1], in data set [2] and in data set [3] were 1690 nM, 8.8 µM and 530 nM, respectively.
Regarding `CN(C)CCOc1ncnc2c1ccn2C1CCN(CC2CN(c3ccc(C#N)cc3)C2)CC1`, the IC50 in data set [1] is above 10000 nM; in [2] it was above 10 µM; in data set [3], above 10000 nM.
For the compound `CC[C@H](Nc1ncnc2[nH]cnc12)c1nc2cccc(F)c2c(=O)n1-c1ccccc1` [IDELALISIB], the IC50 in data set [1] was above 10000 nM; in data set [21], above 10 µM; in data set [22], above 10 µM; in data set [23] it was above 10 µM; in data set [2], above 10 µM; in data set [25], above 10 µM. For the same compound, the IC50 is above 10 µM in [26] and 100 nM in data set [27]. This compound also displayed an IC50 at 72 h in data set [24] above 10 µM.
`CN1CCN(c2ncnc3c2ccn3C2CCN(CC3CN(c4ccc(C#N)cc4)C3)CC2)CC1`: the IC50 in [1] is above 10000 nM; in data set [2], above 10 µM; in data set [3], above 10000 nM.
Regarding `CC(C)(C)OC(=O)N1CC(S(=O)(=O)c2ccc(N3CC(CN4CCC(n5cc(-c6ccc(F)cc6)c6c(N)ncnc65)CC4)C3)cc2)C1`, the figures for the IC50 in data set [1], in data set [2] and in [3] were 1350 nM, above 10 µM and 1140 nM, respectively.
On to `Nc1ncnc2c1c(-c1ccc(F)cc1)cn2C1CCN(CC2CN(c3ccc(S(=O)(=O)c4ccncc4)cc3)C2)CC1`, for which the IC50 was above 10000 nM in data set [1], above 10 µM in data set [2] and 1220 nM in [3].
Taken in the same sequence, the figures for `N#Cc1ccc(N2CC(CN3CCC(n4ccc5c(N)ncnc54)CC3)C2)cc1` were 5200 nM, above 10 µM and 1470 nM.
In the case of `CS(=O)(=O)c1ccc(N2CC(CN3CCC(n4cc(-c5ccc(F)cc5)c5c(N)ncnc54)CC3)C2)cc1`, the IC50 is 2050 nM in data set [1], above 10 µM in data set [2] and 730 nM in data set [3].

For orientation: IC50 means the midpoint of a concentration-inhibition curve.
